Assay results: US10688194B2, “Cell penetrating peptides for intracellular delivery of molecules” (AADIGEN, LLC, priority 2012, dated 2020)
Each block holds one substance with its values, some of them ahead of it. {Cy5} = cyanine 5 fluorescent label

Columns and labels:
Cyclin B1 = assay: VEPEP-3 mediated delivery of antisense PNA, Cyclin B1 protein level; assay type: cell-based; settings: different cultured cells
Excerpt: VEPEP-3 peptides have been used for the delivery of nucleic acid analogues (PNA and morpholino) into different cell lines, including primary cell lines and challenging cell lines. […] We have applied VEPEP-3 strategy for the delivery of PNA antisense targeting Cyclin B1 as previously described (Morris et al, 2007).

[1] = test system: Hela, MCF7, HEK-2, HS-68, and U2OS cells; assay: Cell cycle progression, controls; assay type: cell-based
Cyclic peptide (PC4) = assay: Fluorescence titration, VEPEP-3/cargo binding: cyclic peptide; settings: cargo: Cyclic peptide (PC4)
Experimental: (§1) Fluorescence experiments were performed on a PTI spectrofluorimeter at 25° C. in a NaCl 154 mM buffer. Intrinsic Trp-fluorescence of VEPEP-3 was excited at 290 nm and emission spectrum was recorded between 310 and 400 nm, with a spectral band-pass of 2 and 8 nm for excitation and emission, respectively. FITC-fluorescence of labelled-peptide was excited at 492 nm and emission recorded between 500 and 580 nm. For VEPEP-3/peptide interaction, 0.5 μM of FITC-labelled peptide was titrated by increasing concentrations of VEPEP-3. All measurements were corrected for the dilution and curve fitting were performed by using Grafit software (Erithacus).
(§2) VEPEP-3 peptide form stable complexes with peptides and proteins. The binding of cargos to VEPEP-3 was monitored by fluorescence spectroscopy using the […] intrinsic Trp groups of VEPEP-3 (3 to 5 Trp-residues) and extrinsic fluorescently labelled cargoes (using Cy3, Cy5 or FITC). Curve fitting reveal that VEPEP-3 strongly binds the different cargoes with dissociation constant in the nanomolar range (examples with VEPEP-3a, VEPEP-3C, and VEPEP-3g and three different cargoes are reported in FIGS. 1A-1C, all the data are reported in Table 1).

Peptide (C4 and C2) = assay: Fluorescence titration, VEPEP-3/cargo binding: peptide
Experimental: as §1, §2

PNA (15 mer-PNA) = assay: Fluorescence titration, VEPEP-3/cargo binding: PNA; settings: cargo: 15 mer-PNA
Experimental: as §1
(§3) VEPEP-3 peptides also form stable particles with small aromatic molecules including Daunomycin, Paclitaxel, doxorubicin, porphyrin and charged molecules including nucleotide, nucleoside and peptide-analog of nucleic acids or fluorescent dyes (FIGS. 1A-1C). The dissociation constant for small hydrophobic molecule ranges between 0.05 to 2 μM, depending on the nature of the dyes and of the peptides.

protein (GFP & Nanobody) = assay: Fluorescence titration, VEPEP-3/cargo binding: protein; settings: cargo: protein (GFP & Nanobody)
Experimental: as §1, §2

[2] = Fluorescence titration, VEPEP-3/cargo binding: small hydrophobic molecule; settings: cargo: Doxorubicine
Experimental: as §1, §3

Substance: TGC CAT CGG GCT TGG AGG-CY5 (antisense TGCCATCGGGCTTGGAGG; 3' {Cy5}, sugars by position and backbone not given here; further chemistry not fully specified) [PNA (Cyclin B1)]
downregulation of Cyclin B1 protein level (Cyclin B1): higher than 70%

Substance: VTLMEAKKQVLT (HELM PEPTIDE1{[ac].V.T.L.M.E.A.K.K.Q.V.L.T.[SCCN[*:1]]}$$$$V2.0; SMILES CSCC[C@H](NC(=O)[C@H](CC(C)C)NC(=O)[C@@H](NC(=O)[C@@H](NC(C)=O)C(C)C)[C@@H](C)O)C(=O)N[C@@H](CCC(=O)O)C(=O)N[C@@H](C)C(=O)N[C@@H](CCCCN)C(=O)N[C@@H](CCCCN)C(=O)N[C@@H](CCC(N)=O)C(=O)N[C@H](C(=O)N[C@@H](CC(C)C)C(=O)N[C@H](C(=O)NCCS)[C@@H](C)O)C(C)C) [scrambled C2, reference compound]
effect on cell cycle progression ([1]; 500 nM, complexed with VEPEP-3a at a 20/1 ratio): no effect

Binding, Cyclic peptide (Cyclic peptide (PC4)): yes
Binding, peptide (Peptide (C4 and C2)): yes
Kd (Peptide (C4 and C2)): 10 to 20 nM
Binding, PNA (PNA (15 mer-PNA)): Yes
Kd (PNA (15 mer-PNA)): 100 nM
Binding, Protein (protein (GFP & Nanobody)): Yes
Kd (protein (GFP & Nanobody)): 1000 nM
Binding, SHM [2]: Yes
Kd ([2]; read-out: Kd, SHM): 1000 nM
Substance: X1KWFERWFREWPRKRR [VEPEP-3a]
effect on cell cycle progression ([1]; carrier alone (200 μM)): no effect
